Experimental data from the supplement of paper PMC8498969.

What was measured:
HEK293 [1] = assay: IC50 for inhibition of ZIKV NS1 production
Procedure: (§1)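 HEK293 cells in 1536-well plates were pre-treated with compound for 1 h, infected with ZIKV (MOI 1) for 24 h, and NS1 antigen (intra- plus extracellular) was measured by TR-FRET. Confirmation used 11-point 1:3 dilutions, and IC50 and maximal inhibition were fitted in GraphPad Prism.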

HEK293 [2] = assay: cytotoxicity IC50 (ATP content, uninfected cells); higher = less cytotoxic; settings: infection: none
HEK293 [3] = assay: maximal inhibition of ZIKV NS1 production (% inhibition); higher = stronger antiviral effect
Procedure: as §1

For `CC1=C(CO)C(=O)O[C@@H]([C@@H](C)[C@H]2CC[C@H]3[C@@H]4C[C@H]5O[C@]56[C@@H](O)C=CC(=O)[C@]6(C)[C@H]4CC[C@]23C)C1`, the IC50 (HEK293 [1]) was 2.8 µM, the “cytotoxicity IC50” value (HEK293 [2]) was 2.8 µM and the maximal inhibition (HEK293 [3]) was 102.
In the case of `CC[C@@]1(O)C(=O)OCc2c1cc1n(c2=O)Cc2cc3c(CN(C)C)c(O)ccc3nc2-1`, the IC50 (HEK293 [1]) is reported as 0.051 µM, the “cytotoxicity IC50” value (HEK293 [2]) is reported as > 100 µM and the maximal inhibition (HEK293 [3]) is reported as 96.
`CC(=O)Nc1ccc([C@H](C)C(=O)Nc2ncc(C(C)C)s2)cc1` was tested, and the IC50 (HEK293 [1]) was 7.4 µM, the “cytotoxicity IC50” value (HEK293 [2]) was > 100 µM and the maximal inhibition (HEK293 [3]) was 90.
In the case of `Cc1[nH]nc2ccc(-c3cncc(OC[C@@H](N)Cc4ccccc4)c3)cc12`, the IC50 (HEK293 [1]) is reported as 5.1 µM, the “cytotoxicity IC50” value (HEK293 [2]) is reported as 0.36 µM and the maximal inhibition (HEK293 [3]) is reported as 97.
With `CNC1CCC(N(Cc2cccc(-c3ccncc3)c2)C(=O)c2sc3ccccc3c2Cl)CC1` (stereo not drawn) the IC50 (HEK293 [1]) was 49 µM, the “cytotoxicity IC50” value (HEK293 [2]) was > 100 µM and the maximal inhibition (HEK293 [3]) was 94.
With `C=CCn1c(=O)c2cnc(Nc3ccc(N4CCN(C)CC4)cc3)nc2n1-c1cccc(C(C)(C)O)n1` the IC50 (HEK293 [1]) was 1.7 µM, the “cytotoxicity IC50” value (HEK293 [2]) was > 100 µM and the maximal inhibition (HEK293 [3]) was 99.
`c1ccc2c(-c3cnn4cc(-c5ccc(N6CCNCC6)cc5)cnc34)ccnc2c1` was tested, and the IC50 (HEK293 [1]) was 6.1 µM, the “cytotoxicity IC50” value (HEK293 [2]) was 80 µM and the maximal inhibition (HEK293 [3]) was 106.
`C[C@H]1O[C@@H](O[C@H]2[C@@H](O)C[C@H](O[C@H]3[C@@H](O)C[C@H](O[C@H]4CC[C@@]5(C)[C@H](CC[C@@H]6[C@@H]5C[C@@H](O)[C@]5(C)[C@@H](C7=CC(=O)OC7)CC[C@]65O)C4)O[C@@H]3C)O[C@@H]2C)C[C@H](O)[C@@H]1O` was tested, and the IC50 (HEK293 [1]) was 0.15 µM, the “cytotoxicity IC50” value (HEK293 [2]) was 60 µM and the maximal inhibition (HEK293 [3]) was 104.
For `CC[n+]1c(/C=C/C=C2/N(C)c3ccccc3C2(C)C)sc2ccccc21`, the IC50 (HEK293 [1]) was 4 µM, the “cytotoxicity IC50” value (HEK293 [2]) was 0.26 µM and the maximal inhibition (HEK293 [3]) was 97.
For `O=c1[nH]c(=O)n([C@H]2C[C@H](O)[C@@H](CO)O2)cc1F`, the IC50 (HEK293 [1]) was 0.92 µM, the “cytotoxicity IC50” value (HEK293 [2]) was 60 µM and the maximal inhibition (HEK293 [3]) was 98.
For `Cc1ccc([N+](=O)[O-])cc1S(=O)(=O)N(C)/N=C/c1cnc2ccc(Br)cn12`, the IC50 (HEK293 [1]) was 0.62 µM, the “cytotoxicity IC50” value (HEK293 [2]) was > 100 µM and the maximal inhibition (HEK293 [3]) was 101.
With `NCC(=O)Nc1ccc(-n2nc(C(F)(F)F)cc2-c2ccc3c(ccc4ccccc43)c2)cc1` the IC50 (HEK293 [1]) was 0.99 µM, the “cytotoxicity IC50” value (HEK293 [2]) was 10 µM and the maximal inhibition (HEK293 [3]) was 106.
`Cc1cc(C2CCCCC2)n(O)c(=O)c1` was tested, and the IC50 (HEK293 [1]) was 14 µM, the “cytotoxicity IC50” value (HEK293 [2]) was 20 µM and the maximal inhibition (HEK293 [3]) was 100.
`CC(C)c1cnn2c(NCc3ccccc3)cc(N[C@@H](CO)[C@H](O)CO)nc12` was tested, and the IC50 (HEK293 [1]) was 1.2 µM, the “cytotoxicity IC50” value (HEK293 [2]) was > 100 µM and the maximal inhibition (HEK293 [3]) was 87.
For `CN(C)C(=S)SSC(=S)N(C)C`, the IC50 (HEK293 [1]) was 0.51 µM, the “cytotoxicity IC50” value (HEK293 [2]) was 0.18 µM and the maximal inhibition (HEK293 [3]) was 99.
`CC[C@]1(O)C[C@@H]2CN(CCc3c([nH]c4ccccc34)[C@@](C(=O)OC)(c3cc4c(cc3OC)N(C)[C@H]3[C@@](O)(C(N)=O)[C@H](O)[C@]5(CC)C=CCN6CC[C@]43[C@@H]65)C2)C1` was tested, and the IC50 (HEK293 [1]) was 0.66 µM, the “cytotoxicity IC50” value (HEK293 [2]) was > 100 µM and the maximal inhibition (HEK293 [3]) was 66.
In the case of `CC(C)C[C@H](NC(=O)[C@H](CCc1ccccc1)NC(=O)CN1CCOCC1)C(=O)N[C@@H](Cc1ccccc1)C(=O)N[C@@H](CC(C)C)C(=O)[C@@]1(C)CO1`, the IC50 (HEK293 [1]) is reported as 0.16 µM, the “cytotoxicity IC50” value (HEK293 [2]) is reported as 0.32 µM and the maximal inhibition (HEK293 [3]) is reported as 90.
For `CC(=O)[C@]1(O)Cc2c(O)c3c(c(O)c2[C@@H](O[C@H]2C[C@H](N)[C@H](O)[C@H](C)O2)C1)C(=O)c1ccccc1C3=O`, the IC50 (HEK293 [1]) was 0.17 µM, the “cytotoxicity IC50” value (HEK293 [2]) was > 100 µM and the maximal inhibition (HEK293 [3]) was 86.
`Cn1cc(-c2[nH]c3cc(NC(=O)[C@H](N)C4CCCCC4)cc4c3c2C=NNC4=O)cn1` was tested, and the IC50 (HEK293 [1]) was 0.49 µM, the “cytotoxicity IC50” value (HEK293 [2]) was > 100 µM and the maximal inhibition (HEK293 [3]) was 104.
`Cn1c(=O)c(-c2c(Cl)cccc2Cl)cc2cnc(Nc3ccc(N4CCOCC4)cc3)nc21` was tested, and the IC50 (HEK293 [1]) was 2.1 µM, the “cytotoxicity IC50” value (HEK293 [2]) was 6 µM and the maximal inhibition (HEK293 [3]) was 102.
With `O=C1CCc2ccc(OCCCCN3CCN(c4cccc(Cl)c4Cl)CC3)cc2N1` the IC50 (HEK293 [1]) was 25 µM, the “cytotoxicity IC50” value (HEK293 [2]) was 20 µM and the maximal inhibition (HEK293 [3]) was 102.
